The values below come from patent US20220281848A1, “PYRAZOLE-SUBSTITUTED PYRROLIDINONES AS HERBICIDES” (FMC Corporation, priority 2019, published 2022).

Common to all, as to type: in vivo
Settings in all cases: 19 to 21 days

Experiment [1] concerns blackgrass (Alopecurus myosuroides). The experiment is described as follows: Test B preemergence, blackgrass. From the text:
(§1) Seeds of plant species selected from blackgrass (Alopecurus myosuroides), Italian ryegrass (Lolium multiflorum), wheat, winter (winter wheat, Triticum aestivum), corn (Zea mays), large (Lg) crabgrass (Digitaria sanguinalis), giant foxtail (Setaria faberi), johnsongrass (Sorghum halepense), ragweed (common ragweed, Ambrosia elatior), soybean (Glycine max), barnyardgrass (Echinochloa crus-galli), waterhemp (common waterhemp, Amaranthus rudis), palmer pigweed (Amaranthus palmeri), and surinam grass (Brachiaria decumbens), were planted into a silt loam soil and treated preemergence with test chemicals formulated in a non-phytotoxic solvent mixture which included a surfactant.
(§2) Treated plants and controls were maintained in a greenhouse for 19 to 21 days, after which time all species were compared to controls and visually evaluated. Plant response ratings, summarized in Table B, are based on a scale of 0 to 100 where 0 is no effect and 100 is complete control.

For experiment [2], the system named is giant foxtail (Setaria faberi). The experiment is described as follows: Test B preemergence, giant foxtail.
From the text: as §1, §2

Experiment [3] deals with fall panicum (Panicum dichotomiflorum). The experiment is described as follows: Test C preemergence, fall panicum. From the text:
(§3) Seeds of plant species selected from corn (Zea mays), soybean (Glycine max), velvetleaf (Abutilon theophrasti), palmer pigweed (Amaranthus palmeri), waterhemp (common waterhemp, Amaranthus rudis), surinam grass (Brachiaria decumbens), large (Lg) crabgrass (Digitaria sanguinalis), fall panicum (Panicum dichotomiflorum), giant foxtail (Setaria faberi), ragweed (common ragweed, Ambrosia elatior), barnyardgrass (Echinochloa crus-galli), E. Black Nightshade (Solanum ptycanthum), and horseweed (Conyza canadensis), were planted into a silt loam soil and treated preemergence with test chemicals formulated in a non-phytotoxic solvent mixture which included a surfactant.
(§4) Treated plants and controls were maintained in a greenhouse for 19 to 21 days, after which time all species were compared to controls and visually evaluated. Plant response ratings, summarized in Table C, are based on a scale of 0 to 100 where 0 is no effect and 100 is complete control.

Experiment [4] has as its system horseweed (Conyza canadensis). Kind of experiment: Test C preemergence, horseweed.
From the text: as §3, §4

SMILES strings stand for the structures.

For `CN1C[C@H](c2cc(C(F)(F)F)n(C)n2)[C@@H](C(=O)Nc2cccc(F)c2F)C1=O` [Compound 13, (3S,4R)—N-(2,3-difluorophenyl)-1-methyl-4-[1-methyl-5-(trifluoromethyl)-1H-pyrazol-3-yl]-2-oxo-3-pyrrolidinecarboxamide], the “Plant response rating (0 no effect, 100 complete control) Blackgrass” value is 0 in experiment [1] (16 g ai/ha Preemergence), 0 in experiment [1] (31 g ai/ha Preemergence), 13 in experiment [1] (62 g ai/ha Preemergence) and 18 in experiment [1] (125 g ai/ha Preemergence). Besides, the “Plant response rating (0 no effect, 100 complete control) Foxtail, Giant” value in experiment [2] (16 g ai/ha Preemergence) turned out to be 90; in experiment [2] (31 g ai/ha Preemergence), 95; in experiment [2] (62 g ai/ha Preemergence), 98; in experiment [2] (125 g ai/ha Preemergence), 98. In addition, the “Plant response rating (0 no effect, 100 complete control) Panicum” value in experiment [3] (4 g ai/ha Preemergence) was determined as 0; in experiment [3] (8 g ai/ha Preemergence), 0; in experiment [3] (16 g ai/ha Preemergence) it was 0; in experiment [3] (31 g ai/ha Preemergence) it was 0; in experiment [3] (62 g ai/ha Preemergence) it was 53; in experiment [3] (125 g ai/ha Preemergence), 48. Moreover, the “Plant response rating (0 no effect, 100 complete control) Horseweed” value worked out at 0 in experiment [4] (4 g ai/ha Preemergence); 0 in experiment [4] (8 g ai/ha Preemergence); 0 in experiment [4] (16 g ai/ha Preemergence); 30 in experiment [4] (31 g ai/ha Preemergence); 45 in experiment [4] (62 g ai/ha Preemergence); 65 in experiment [4] (125 g ai/ha Preemergence).
